In patent US20120184006A1, “Reductase Enzymes” (UTAH STATE UNIVERSITY, priority 2011, published 2012):

Experiments:
[1] = test system: FACoAR from M. aquaeolei VT8; experiment: Initial activity assay, products identified by TLC and GC; format: biochemical, Marinobacter aquaeolei VT8; conditions: 200 μM substrate, NADPH
Method: Initial activity assays were conducted using thin layer chromatography (TLC) and a gas chromatography (GC) assay similar to that described previously (29). To test activity, 0.3 mg of protein was added to a reaction vessel along with 200 μM palmitoleyl-CoA and 800 μM NADPH, NADH, NADP^+, NAD^+ in reaction buffer containing 20 mM Tris-HCl pH 7.0 and 50 mM NaCl. Reactions were allowed to proceed for 1 hr before quenching by the addition of 2 mL of hexane. The hexane water mixture was vortexed vigorously for 30 seconds before centrifuging to separate phases. The hexane phase was removed to a clean container and the solvent was removed under a stream of argon. […] The TLC plate was developed in a 2:15:90 volumetric ratio of glacial acetic acid:ethyl ether:hexane. After development, visualization was performed in a sealed jar with iodine crystals for 10 min. The TLC results were verified by GC analysis of the sample prepared in the same way and compared to retention times of known standards.

[2] = target: T1, fatty acyl-CoA reductase (FACoAR) from M. aquaeolei VT8 (Marinobacter nauticus (Marinobacter aquaeolei), UniProt A1U3L3); experiment: Continuous spectrophotometric DTNB assay (release of free CoA); format: biochemical; conditions: for Rate of Reaction (nmol NTB^2− min^−1 mg protein^−1): 6 μM of the respective CoA as substrate; for % Specific Activity of Palmitoyl-CoA: percent of the specific activity of palmitoyl-CoA, 6 μM substrate
T1 sequence (A1U3L3 1-661): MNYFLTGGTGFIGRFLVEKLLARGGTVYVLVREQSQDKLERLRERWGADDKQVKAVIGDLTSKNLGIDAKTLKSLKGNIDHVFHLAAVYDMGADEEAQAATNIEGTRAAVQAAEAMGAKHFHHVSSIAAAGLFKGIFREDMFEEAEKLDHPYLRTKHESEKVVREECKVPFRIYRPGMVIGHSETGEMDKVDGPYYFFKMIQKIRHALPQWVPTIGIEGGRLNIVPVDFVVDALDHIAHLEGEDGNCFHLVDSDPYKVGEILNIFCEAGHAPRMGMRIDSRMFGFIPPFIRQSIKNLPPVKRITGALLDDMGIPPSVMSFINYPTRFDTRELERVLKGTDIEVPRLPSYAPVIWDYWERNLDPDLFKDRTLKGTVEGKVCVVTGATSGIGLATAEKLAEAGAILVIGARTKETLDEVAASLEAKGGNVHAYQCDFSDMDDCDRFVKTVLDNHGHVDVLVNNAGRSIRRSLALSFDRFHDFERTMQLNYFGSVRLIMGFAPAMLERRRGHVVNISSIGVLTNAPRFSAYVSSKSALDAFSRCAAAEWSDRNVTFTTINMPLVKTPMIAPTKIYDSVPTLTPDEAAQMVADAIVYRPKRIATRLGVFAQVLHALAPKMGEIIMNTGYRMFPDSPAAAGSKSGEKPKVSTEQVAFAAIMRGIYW
Method: Buffers and solutions were prepared as described above for NADPH assays. Each assay was conducted by adding 75 μL of the 2 mg/mL NADPH stock solution in buffer, 58 μg of protein, and 10 μL of a 10 mg/mL solution of DTNB in DMSO, varying concentrations of acyl-CoA and buffer to bring the volume to 1 mL. Reduction of acyl-CoA substrate was monitored by following the increase of the 2-nitro-5-thiobenzoate (NTB^2−) dianion concentration at 412 nm. […] These initial rates were used to calculate the apparent K, and Vmax values using the Igor Pro (Wavemetrics, Lake Oswego, Oreg.) software package fitting the initial rates to the Hill equation (Equation 1) where v is the initial velocity, Vmax is the maximum calculated velocity, [S]^n is the concentration of substrate and n is the Hill coefficient, K0.5^n is the approximation of Km or the approximate substrate concentration at which half of Vmax is obtained at a specific value of the Hill coefficient n. In the case of enzyme inhibition, a modified version of the Hill equation allowing for cooperative inhibition (Equation 2) where all of the coefficients are defined as for the Hill equation and the additional [i]^n is the concentration of inhibitor and n is the Hill coefficient. The Ki^n is the approximate concentration of inhibitor it takes to double the K0.5 at a specific value of the Hill coefficient n.

[3] = target: T1, fatty acyl-CoA reductase (FACoAR) from M. aquaeolei VT8; experiment: Continuous spectrophotometric NADPH assay (decrease of NADPH at 340 nm); format: biochemical; conditions: FIG. 5, NADPH assay, acyl-CoA substrate
Method: All assays were conducted in a total volume of 1 mL. A buffer containing 50 mM NaCl, 20 mM Tris-HCl pH 7.0, and 0.5 mg/mL BSA was prepared along with a 1 mM stock of aldehyde dissolved in dimethyl sulfoxide (DMSO) or a 0.1 mM stock of the acyl-CoA, and […] NADPH. All components including protein were degassed in sealed vials and placed under an argon atmosphere. NADPH was degassed as the solid prior to the addition of degassed buffer. Each assay was conducted by adding 75 μL of the NADPH stock, 58 μg protein for acyl-CoA assays or 15 μg protein for aldehyde assays, varying concentrations of aldehyde or acyl-CoA and buffer to bring the final volume to 1 mL. Each sample was continuously monitored for the decrease of NADPH at 340 nm on a Varian 50 Bio UV-visible spectrophotometer (Walnut Creek, Calif.). Initial rates were calculated in Excel using the linear initial rates of reaction obtained from the spectrophotometric assays by obtaining the slope from the best. In line and calculating nmol of NADPH oxidized per second. (Microsoft, Redmond, Wash.). These initial rates were used to calculate Km and Vmax values using the Igor Pro software package (Wavemetrics, Lake Oswego, Oreg.) fitting the initial rates to the Hill equation (31). NADPH specific activity assays were conducted identically as described above using a fixed 60 μM concentration of the various aldehyde substrates or 6 μM of the various acyl-CoA substrates.

[4] = target: T1, fatty acyl-CoA reductase (FACoAR) from M. aquaeolei VT8; experiment: Palmitoyl CoA inhibition of fatty aldehyde (cis-11-hexadecenal) reduction; format: biochemical; conditions: competitive inhibition of cis-11-hexadecenal reduction; 0, 1, 2, 4 μM inhibitor; fit to equation 2; read-out: apparent Ki
Method: The (◯) denote assays performed with 0 μM palmitoyl CoA, ([…]) denote assays performed with 1 palmitoyl CoA, (□) denote assays performed with 2 μM palmitoyl CoA, and (Δ) denote assays performed with 4 μM palmitoyl CoA. Specific activities are plotted in units of nmol NADP^+ min^−1 mg protein^−1. All assays were conducted in triplicate and are shown with error bars indicating SEM fit to equation 1 in the materials and methods section. The apparent Ki was determined by fitting all four data sets to equation 2 in the materials and methods.
All assays were conducted in a total volume of 1 mL. A buffer containing 50 mM NaCl, 20 mM Tris-HCl pH 7.0, and 0.5 mg/mL BSA was prepared along with a 1 mM stock of aldehyde dissolved in dimethyl sulfoxide (DMSO) or a 0.1 mM stock of the acyl-CoA, and 2.0 trig/mL NADPH. […] Each sample was continuously monitored for the decrease of NADPH at 340 nm on a Varian 50 Bio UV-visible spectrophotometer (Walnut Creek, Calif.). Initial rates were calculated in Excel using the linear initial rates of reaction obtained from the spectrophotometric assays by obtaining the slope from the best. […]
Buffers and solutions were prepared as described above for NADPH assays. […] Reduction of acyl-CoA substrate was monitored by following the increase of the 2-nitro-5-thiobenzoate (NTB^2−) dianion concentration at 412 nm. […]

SMILES	detectable product of reduction [1]	Rate of Reaction (nmol NTB^2− min^−1 mg protein^−1) [2]	% Specific Activity of Palmitoyl-CoA [2] [%]	n (Hill coefficient) [3]	Vmax ([3]; Hill fit)	Ki [4] [nM]	Vmax when CoA release was monitored [2] [nmol/min/mg]	maximal specific activity (CoA release) [2]	n (Hill coefficient) ([2]; FIG. 5, DTNB assay)	Vmax ([2]; FIG. 5, DTNB assay, release of free CoA, Hill fit, substrate)
CCCCCC/C=C\CCCCCCCC(=O)SCCNC(=O)CCNC(=O)[C@H](O)C(C)(C)COP(=O)(O)OP(=O)(O)OC[C@H]1O[C@@H](n2cnc3c(N)ncnc32)[C@H](O)[C@@H]1OP(=O)(O)O [Palmitoleyl-CoA]	palmitoleyl alcohol	53.7 ± 1.1 nmol NTB^2− min^−1 mg protein^−1	93	–	–	–	–	–	–	–
CCCCCCCCCCCCCCCC(=O)SCCNC(=O)CCNC(=O)[C@H](O)C(C)(C)COP(=O)(O)OP(=O)(O)OC[C@H]1O[C@@H](n2cnc3c(N)ncnc32)[C@H](O)[C@@H]1OP(=O)(O)O [Palmitoyl-CoA]	–	54.7 ± 4.7 nmol NTB^2− min^−1 mg protein^−1	100	2.6±0.3	197±8 nmol NADP^+ min^−1 mg of protein^−1	1900 ± 260	~180	115 nmol of NTB/min/mg protein	2.8±0.7	115±7 nmol NTB^−2 min^−1 mg of protein^−1
